Measurements reported in ChEMBL document CHEMBL1201862, “PubChem BioAssay data set” (2004).
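How tested: cells in 96-well plates exposed to compound for 48 hours at five concentrations. The concentration for 50% growth inhibition is given as GI50.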 Calls of active or inactive are those of the source. Cut-off read from the data, not from the text of the source: active = GI50 up to about 1.1 µM and inactive = higher.

Tests used:
Assay in all cases: DTP human tumour cell line panel, 48 h
CAKI-1 = system: CAKI-1
MDA-N = system: MDA-N
UACC-257 = system: UACC-257
MDA-MB-231 = system: MDA-MB-231
HCT-15 = system: HCT-15
MCF7 = system: MCF7
HCT-116 = system: HCT-116
T47D = system: T47D
786-0 = system: 786-0
PC-3 = system: PC-3
M14 = system: M14
OVCAR-5 = system: OVCAR-5
SW-620 = system: SW-620
CCRF-CEM = system: CCRF-CEM
NCI/ADR-RES = system: NCI/ADR-RES
LOX IMVI = system: LOX IMVI
HOP-62 = system: HOP-62
K562 = system: K562
EKVX = system: EKVX
RXF 393 = system: RXF 393

Row | SMILES | GI50 (CAKI-1) | GI50 (MDA-N) | GI50 (UACC-257) | GI50 (MDA-MB-231) | GI50 (HCT-15) | GI50 (MCF7) | GI50 (HCT-116) | GI50 (T47D) | GI50 (786-0) | GI50 (PC-3) | GI50 (M14) | GI50 (OVCAR-5) | GI50 (SW-620) | GI50 (CCRF-CEM) | GI50 (NCI/ADR-RES) | GI50 (LOX IMVI) | GI50 (HOP-62) | GI50 (K562) | GI50 (EKVX) | GI50 (RXF 393)
1 | CCOC(=O)/C=C(/C(=O)OCC)n1ccc(N)nc1=O | 37 µM (inactive) | > 100 µM (inactive) | > 100 µM (inactive) | > 100 µM (inactive) | > 100 µM | > 100 µM (inactive) | > 100 µM (inactive) | > 100 µM (inactive) | > 100 µM (inactive) | > 100 µM (inactive) | > 100 µM (inactive) | 47.9 µM (inactive) | 72.3 µM (inactive) | 25.5 µM (inactive) | > 100 µM (inactive) | 97.7 µM (inactive) | > 100 µM (inactive) | > 100 µM (inactive) | 84.9 µM (inactive) | –
2 | O=[As](O)(O)c1ccc2nc3cc([As](=O)(O)O)ccc3nc2c1 | > 100 µM (inactive) | > 100 µM (inactive) | > 100 µM (inactive) | > 100 µM (inactive) | > 100 µM | > 100 µM (inactive) | > 100 µM (inactive) | > 100 µM (inactive) | > 100 µM (inactive) | > 100 µM (inactive) | > 100 µM (inactive) | > 100 µM (inactive) | > 100 µM (inactive) | – | > 100 µM (inactive) | > 100 µM (inactive) | > 100 µM (inactive) | > 100 µM (inactive) | > 100 µM (inactive) | > 100 µM (inactive)
3 | CCOC(=O)C1=C(OS(=O)(=O)C(F)(F)F)CCCC1 | > 100 µM (inactive) | > 100 µM (inactive) | > 100 µM (inactive) | > 100 µM (inactive) | > 100 µM | > 100 µM (inactive) | – | > 100 µM (inactive) | > 100 µM (inactive) | > 100 µM (inactive) | > 100 µM (inactive) | > 100 µM (inactive) | > 100 µM (inactive) | > 100 µM (inactive) | > 100 µM (inactive) | > 100 µM (inactive) | > 100 µM (inactive) | > 100 µM (inactive) | > 100 µM (inactive) | > 100 µM (inactive)
4 | Nc1ncnc2c1ncc(=O)n2C1CC(O)C(CO)O1 (stereo not given) | > 100 µM (inactive) | > 100 µM (inactive) | > 100 µM (inactive) | > 100 µM (inactive) | > 100 µM | > 100 µM (inactive) | > 100 µM (inactive) | > 100 µM (inactive) | > 100 µM (inactive) | > 100 µM (inactive) | > 100 µM (inactive) | > 100 µM (inactive) | > 100 µM (inactive) | > 100 µM (inactive) | > 100 µM (inactive) | > 100 µM (inactive) | > 100 µM (inactive) | > 100 µM (inactive) | > 100 µM (inactive) | –
5 | CC(=O)Nc1ccc2nncnc2c1 | > 100 µM (inactive) | > 100 µM (inactive) | > 100 µM (inactive) | > 100 µM (inactive) | > 100 µM | > 100 µM (inactive) | > 100 µM (inactive) | > 100 µM (inactive) | > 100 µM (inactive) | > 100 µM (inactive) | > 100 µM (inactive) | > 100 µM (inactive) | > 100 µM (inactive) | > 100 µM (inactive) | > 100 µM (inactive) | > 100 µM (inactive) | > 100 µM (inactive) | > 100 µM (inactive) | > 100 µM (inactive) | –
